Assay results from patent EP4117701B1, “COMPOSITIONS FOR THE PREVENTION AND/OR TREATMENT OF BENIGN PROSTATIC HYPERTROPHY (BPH)” (IDI Integratori Dietetici Italiani S.r.l., priority 2020, dated 2021).

How the values were obtained:
[1] = tested on: human prostate cell line (LNCaP); test: Cytotoxicity of plant extracts, MTS assay, 24 hours; format: cell-based; details: extracts 0 to 1000 µg/mL (TEUPOL10 0 to 1500 µg/mL), Dutasteride 0 to 7.93 µg/mL
Procedure: The cytotoxic activity of considered plant extracts was evaluated in a human prostate cell line (LNCaP). The prostate cells were treated with growing concentrations of the plant extracts (from 0 to 1000 µg/mL for the extract of B. Serrata and S. Repens, from 0 to 1500 µg/mL for TEUPOL10) and of the positive control Dutasteride (from 0 µg/mL to 7.93 µg/mL). The treatment was prolonged for 24 hours, time corresponding to the overall duration of the experiments related to PSA and to 5-α-reductase. At the end of the incubation period, the vitality of the prostate cells was evaluated by using the assay MTS, based upon the reduction of the compound MTS tetrazolium by the vital cells to generate a coloured form, which can be quantified by measuring the absorbance thereof at 490-500 nm.

[2] = in vitro; format: cell-based; details: human, lncap cells
Procedure: The cytotoxic activity of the considered plant extracts was evaluated in a human tumour prostate cell line (LNCaP). […] The treatment was prolonged for 6 hours, period of time corresponding to the overall duration of the pre-treatment and of post-treatment thereto the cells were subjected for the subsequent evaluation of the anti-inflammatory activity. At the end of the incubation period, the vitality of the prostate cells was evaluated by using the assay MTS, based upon the reduction of the compound MTS tetrazolium by the vital cells to generate a form of coloured formazan, which can be quantified by measuring the absorbance at 490-500 nm thereof.

| MCC at 6 h [2] | Compound | adverse effect on vitality of the prostate cells [1] |
| --- | --- | --- |
| – | C[C@]12C=CC(=O)N[C@@H]1CC[C@@H]1[C@@H]2CC[C@]2(C)[C@@H](C(=O)Nc3cc(C(F)(F)F)ccc3C(F)(F)F)CC[C@@H]12 [Dutasteride] | No adverse effect |
| 80 µg/mL | O=C(O)Cc1ccccc1Nc1c(Cl)cccc1Cl [Diclofenac] | – |
